Data taken from patent US20060088942A1, “Measuring nitric oxide in blood gases and treatments based thereon” (priority 2002, published 2006).

Key:
hemoglobin = hemoglobin (Homo sapiens, UniProt P68871+P69905); details: PBS pH 7.4, 300 μM nitrite, heme 1 mM; compared to SNO-oxyhemoglobin samples
Description: For assay by EPR, spectroscopy was carried out as described in Gow, A. J., et al, Proc. Natl. Acad. Scie. […] SNO-oxyhemoglobin samples (0.5 mM protein) for comparison were prepared as described in Jia, L., et al, Nature, 380, 221-226 (1996).
Comparison was to SNO-oxyhemoglobin samples (0.5 mM protein) prepared as described in Jia, L., et al, Nature 380, 221-226 (1996).

[1] = test system: native fresh red blood cells
Description: The samples were deoxygenated by placing them in a bioassay bath at low pO2. Then, in paired samples, sodium nitrite (1:200 molar ratio of nitite to hemoglobin in phosphate buffered saline) was added to the deoxygenated red blood cells for 10 minutes. The samples were then re-oxygenated by reintroducing air followed by shaking.

[2] = Infusion in patient with unstable angina (Example II); type: in vivo, human
From the text: A person is admitted to a hospital with unstable angina. The patient is given I.V. nitroglycerin, heparin and a beta blocker. However, the patient continues to experience chest pain at rest. The patient's normal NO level is known from past testing. […] Infusion at a rate of 5 nmol/min of NO in 0.9% NaCl is effected. The chest pain resolves.

outdated red blood cells = experiment: Organ chamber bioassay of vasodilator response at low pO2, outdated red blood cells (Example V); type: cell-based; details: for relaxations: 1:250 molar ratio NO or nitrite to hemoglobin, deoxygenated with argon, then oxygenated by air, FIG. 3
From the text: Samples from each set were deoxygenated by bubbling argon gas therethrough and then admixed with PBS, PBS with NO dissolved therein or PBS with sodium nitrite dissolved therein. The treatments loaded the red blood cells with 1:250 molar ratio NO or nitrite to hemoglobin. The red blood cells were then oxygenated by exposure to air.

[3] = anaerobic saturated solution in saline infused at 100 nmol/min
[4] = Transfusion of NO-doped blood unit in patient with severe coronary artery disease (Example VII); type: in vivo, human; details: person; second blood unit doped with NO, 1:250 molar ratio of NO to hemoglobin
Red cells = experiment: Storage of red cells incubated with NO at weekly intervals (Example VI); type: cell-based; details: 1:250 molar ratio NO to hemoglobin, 10 minutes at weekly intervals; at 8 weeks
Description: Red cells are incubated at a molar ratio of 1:250 NO to hemoglobin for 10 minutes at weekly intervals. At 8 weeks, NO levels and vasodilator response are preserved.

[5] = Infusion in patient with primary pulmonary hypertension class II (Example III); type: in vivo, human
From the text: A person with primary pulmonary hypertension class II presents complaining with shortness of breath. The patient's normal NO level is know from prior testing. […] Infusion of NO in 0.9% NaCl at a rate of 5 nmol/min of NO is effected. The shortness of breath symptom resolves. After three days of therapy, pulmonary artery pressure has dropped 5 mm of mercury.

Sequence of hemoglobin (P69905 2-142 limits assumed): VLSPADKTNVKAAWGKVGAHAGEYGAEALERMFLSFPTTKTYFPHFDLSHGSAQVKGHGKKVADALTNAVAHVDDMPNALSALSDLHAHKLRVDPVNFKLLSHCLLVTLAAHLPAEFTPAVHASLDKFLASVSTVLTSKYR
Sequence of hemoglobin (P68871 2-147 limits assumed): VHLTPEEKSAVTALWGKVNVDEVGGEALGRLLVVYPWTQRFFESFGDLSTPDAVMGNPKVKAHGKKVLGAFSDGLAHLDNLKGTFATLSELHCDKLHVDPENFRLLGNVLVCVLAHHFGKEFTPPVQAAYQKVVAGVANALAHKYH

Structure (SMILES): O=NO [nitrite]
- oxygen delivery improving activity identified with NO (hemoglobin): facilitated
- vasodilator response [1]: no effect
- chest pain ([2]; nitrite additionally given at 100 nmol/min with the NO infusion): resolves more quickly
- relaxations (outdated red blood cells): improved and effectively normalized

Structure (SMILES): O=NO [sodium nitrite]
- vasodilator response (outdated red blood cells; 1:200 molar ratio nitrite to hemoglobin in PBS, added to deoxygenated cells for 10 minutes, then re-oxygenated, FIG. 2): normalize
- oxygen delivery [3]: Improved

Structure (SMILES): [N]=O [NO, nitric oxide]
- chest pain ([2]; person, unstable angina, infusion 5 nmol/min of NO in 0.9% NaCl): resolves
- relaxations (outdated red blood cells): improved and effectively normalized
- chest pain on transfusion [4]: not experienced
- vasodilator response (Red cells): preserved
- drop of pulmonary artery pressure ([5]; after three days of therapy, NO 5 nmol/min): 5 mm of mercury
- shortness of breath symptom ([5]; person, infusion of NO in 0.9% NaCl at 5 nmol/min): resolves
